Results published in paper PMC6225228, “Design, Synthesis and Evaluation of N-pyrazinylbenzamides as Potential Antimycobacterial Agents” (Molecules : A Journal of Synthetic Chemistry and Natural …, 2018).
Values after ≈ are worked out from the molar mass of the structure shown. Read-outs that look alike come from different tables or passages of the source. Marks after values point to notes of the source that are not given here.

Legend:
[1] = tested on: Mycobacterium tuberculosis H37Rv (Mtb); settings: cited from earlier work
[2] = tested on: M. avium ssp. avium CNCTC My 80/72 (ATCC 15769); experiment: Antimycobacterial microdilution MABA, M. avium; format: cell-based, Mycobacterium avium; settings: Mycobacterium avium, ATCC15769; Middlebrook 7H9 with OADC, pH 6.6, MABA; read-out: M. avium ATCC 15769 MIC
[3] = tested on: Mycobacterium tuberculosis H37Rv CNCTC My 331/88 (ATCC 27294); experiment: Antimycobacterial microdilution MABA, M. tuberculosis; format: cell-based; settings: Mycobacterium tuberculosis
[4] = human, HepG2 cells
[5] = tested on: Mycobacterium smegmatis CCM 4622 (ATCC 607); experiment: Antimycobacterial microdilution, M. smegmatis; format: cell-based; settings: Mycolicibacterium smegmatis, Middlebrook 7H9 with OADC, resazurin; read-out: M. smeg. ATCC 607 MIC
[6] = tested on: M. kansasii CNCTC My 235/80 (ATCC 12478); experiment: Antimycobacterial microdilution MABA, M. kansasii; format: cell-based, Mycobacterium kansasii; settings: Mycobacterium kansasii, ATCC12478; Middlebrook 7H9 with OADC, pH 6.6, MABA; read-out: M. kans. ATCC 12478 MIC
[7] = tested on: Mycobacterium tuberculosis H37Rv (Mtb); settings: cited from earlier work; remark: listed apart in the source
[8] = Šula's semisynthetic medium, pH = 5.6, MABA
[9] = Middlebrook 7H9, pH = 6.6, MABA
[10] = Šula's semisynthetic medium, pH = 5.6, turbidity, first value

For `O=C(Nc1ccccc1Cl)c1cncc(Cl)n1` [Amide R1=6-Cl R2=2-Cl], the “Amides MIC” value [1, 8] is listed as 100 ^d [34] μg/mL.
With `O=C(Nc1cncc(Cl)n1)c1cccc(C(F)(F)F)c1` [Compound 3n, N-(6-chloropyrazin-2-yl)-3-(trifluoromethyl)benzamide] the MIC [2] was 50 µg/mL (≈ 166 µM), the MIC ([3]; Middlebrook 7H9 with OADC growth supplement, pH = 6.6, MABA, read-out: Mtb H37Rv ATCC 27294 MIC) was 25 µg/mL and the MIC ([3]; molar concentration, read-out: Mtb MIC) was 82.9 µM. For the same compound, the IC50 at 24 h [4] was over 250 µM, the MIC [5] was 125 µg/mL (≈ 414 µM) and the melting point was 124.2 to 125 °C. The MIC [6] was 25 µg/mL (≈ 82.9 µM).
In the case of `Cc1ccc(NC(=O)c2cnccn2)cc1` [Amide R1=H R2=4-CH3], the “Amides MIC” value [1, 9] is listed as 100 ^b [27] μg/mL and the “Amides Inhibition (%) at 6.25 μg/mL (TAACF)” value (“Amides Inhibition (%)” for short) [7] is listed as 86 [32] %.
For `Cc1ccc(NC(=O)c2cncc(Cl)n2)cc1` [Amide R1=6-Cl R2=4-CH3], the “Amides Inhibition (%)” value [7] is given as 71 [32] %.
In the case of `O=C(Nc1cccc(O)c1)c1cnc(Cl)cn1` [Amide R1=5-Cl R2=3-OH], the “Amides MIC” value [1, 10] is listed as 6.25 ^c [18] μg/mL.
For `COc1ccc(NC(=O)c2cnccn2)cc1` [Amide R1=H R2=4-OCH3], the “Amides MIC” value [1, 9] is given as >100 ^b [27] μg/mL.
In the case of `O=C(Nc1cccc(C(F)(F)F)c1)c1cnccn1` [Amide R1=H R2=3-CF3], the “Amides MIC” value [1, 9] is listed as 50 µg/mL, the “Amides MIC” value ([1]; conditions not footnoted) is listed as 6.25 µg/mL and the “Amides Inhibition (%)” value [7] is listed as 99 [32] %.
For `O=C(Nc1ccc(Cl)cc1)c1cnccn1` [Amide R1=H R2=4-Cl], the “Amides MIC” value [1, 9] is listed as 50 ^b [27] μg/mL and the “Amides Inhibition (%)” value [7] is listed as 4 [33] %.
For `O=C(Nc1ccc(O)cc1)c1cnc(Cl)cn1` [Amide R1=5-Cl R2=4-OH], the “Amides MIC” value [1, 10] is listed as 3.13 µg/mL and the “Amides MIC (value in parentheses)” value ([1]; Šula's semisynthetic medium, pH = 5.6, turbidity, second value in parentheses) is listed as 12.5 µg/mL.
In the case of `O=C(Nc1cccc(Cl)c1)c1cnccn1` [Amide R1=H R2=3-Cl], the “Amides MIC” value [1, 9] is given as >100 ^b [27] μg/mL and the “Amides Inhibition (%)” value [7] is given as 14 [33] %.
For `COc1ccccc1NC(=O)c1cnccn1` [Amide R1=H R2=2-OCH3], the “Amides MIC” value [1, 9] is listed as >100 ^b [27] μg/mL.
For `O=C(Nc1ccccc1)c1cncc(Cl)n1` [Amide R1=6-Cl R2=H], the “Amides MIC” value [1, 8] is listed as 25 ^d [34] μg/mL and the “Amides Inhibition (%)” value [7] is listed as 32 [31] %.
